According to ChEMBL document CHEMBL2434869, “Pyrazole containing natural products: synthetic preview and biological significance” (Eur J Med Chem, 2013):

Legend:
[1] = Toxicity in white mouse; assay type: organism-based; conditions: in vivo
[2] = Cytotoxicity against mouse EAC assessed as growth inhibition; assay type: functional, Ehrlich
[3] = Cytotoxicity against mouse Gardner lymphosarcoma cells assessed as growth inhibition; assay type: functional
[4] = Cytotoxicity against rat Walker 256 cells assessed as growth inhibition; assay type: functional
X5563 = test: Cytotoxicity against mouse X5563 cells assessed as growth inhibition; assay type: functional
[5] = Cytotoxicity against mouse mammary carcinoma 755 cells assessed as growth inhibition; assay type: functional

For COc1[nH]nc2nncnc12, the MTD [1] was 50 mg/kg and the “growth inhibition (GI)” value [2] was 83%.
In the case of COc1nnc2n(C)ncnc1-2 [PSEUDOIODININE], the MTD [1] is reported as 20 mg/kg and the “growth inhibition (GI)” value [2] is reported as 64%.
For NC(=O)c1ncn([C@@H]2O[C@H](CO)[C@@H](O)[C@H]2O)n1 [RIBAVIRIN], the “growth inhibition (GI)” value [3] was over 50%, the “growth inhibition (GI)” value [4] was over 50% and the “growth inhibition (GI)” value (X5563) was over 50%. For the same compound, the “growth inhibition (GI)” value [5] was over 50%.
In the case of COc1nnc2nn(C)cnc1-2, the MTD [1] is reported as 0.2 mg/kg and the “growth inhibition (GI)” value [2] is reported as 40%.
